Experimental data as given in patent publication US9663530B2, “5-oxa-2-azabicyclo[2.2.2]OCTAN-4-yl and 5-oxa-2-azabicyclo[2.2.1]heptan-4-yl derivatives” (Hoffmann-La Roche Inc., priority 2014, dated 2017).
Each block holds one compound with its values, some of them ahead of it.

Tests used:
mouse TAAR1 = mouse TAAR1 (Mus musculus (Mouse), UniProt Q923Y8); test: Radioligand binding assay on mouse TAAR1; settings: for Ki: mouse TAAR1 (first value of the cell), membranes of HEK-293 cells stably expressing mouse TAAR1, read-out: Ki (μM) mouse/rat
Protocol: (§1) Construction of TAAR Expression Plasmids and Stably Transfected Cell Lines
(§2) For the construction of expression plasmids the coding sequences of human, rat and mouse TAAR 1 were amplified from genomic DNA essentially as described by Lindemann et al.. The Expand High Fidelity PCR System (Roche Diagnostics) was used with 1.5 mM Mg^2+ and purified PCR products were cloned into pCR2.1-TOPO cloning vector (Invitrogen) following the instructions of the manufacturer. PCR products were subcloned into the pIRESneo2 vector (BD Clontech, Palo Alto, Calif.), and expression vectors were sequence verified before introduction in cell lines.
(§3) HEK293 cells (ATCC # CRL-1573) were cultured essentially as described by Lindemann et al. (2005). For the generation of stably transfected cell lines HEK293 cells were transfected with the pIRESneo2 expression plasmids containing the TAAR coding sequences (described above) with Lipofectamine 2000 (Invitrogen) according to the instructions of the manufacturer, and 24 hrs post transfection the culture medium was supplemented with 1 mg/ml G418 (Sigma, Buchs, Switzerland). After a culture period of about 10 d clones were isolated, expanded and tested for responsiveness to trace amines (all compounds purchased from Sigma) with the cAMP Biotrak Enzyme immunoassay (EIA) System (Amersham) following the non-acetylation EIA procedure provided by the manufacturer.
Radioligand Binding Assay on Mouse TAAR1
(§4) Membrane Preparation and Radioligand Binding.
HEK-293 cells stably expressing mouse TAAR1 were maintained at 37° C. and 5% CO2 in DMEM high glucose medium, containing fetal calf serum (10%, heat inactivated for 30 min at 56° C.), penicillin/streptomycin (1%), and 375 μg/ml geneticin (Gibco). Cells were released from culture flasks using trypsin/EDTA, harvested, washed twice with ice-cold PBS (without Ca^2+and Mg^2+), pelleted at 1,000 rpm for 5 min at 4° C., frozen and stored at −80° C. Frozen pellets were suspended in 20 ml HEPES-NaOH (20 mM, pH 7.4) containing 10 mM EDTA and homogenized with a Polytron (PT 6000, Kinematica) at 14,000 rpm for 20 s. The homogenate was centrifuged at 48,000×g for 30 min at 4° C. Subsequently, the supernatant was removed and discarded, and the pellet resuspended in 20 ml HEPES-NaOH (20 mM, pH 7.4) containing 0.1 mM EDTA using the Polytron (20 s at 14,000 rpm). This procedure was repeated and the final pellet resuspended in HEPES-NaOH containing 0.1 mM EDTA and homogenized using the Polytron. Typically, aliquots of 2 ml membrane portions were stored at −80° C. With each new membrane batch the dissociation constant (Kd) was determined via a saturation curve. The TAAR1 radioligand ^3[H]-(S)-4-[(ethyl-phenyl-amino)-methyl]-4,5-dihydro-oxazol-2-ylamine (described in WO 2008/098857) was used at a concentration equal to the calculated Kd value, that was usually around 0.7 nM, resulting in the binding of approximately 0.5% of the radioligand and a specific binding representing approximately 70% of the total binding. Nonspecific binding was defined as the amount of ^3[H]-(S)-4-[(ethyl-phenyl-amino)-methyl]-4,5-dihydro-oxazol-2-ylamine bound in the presence of 10 μM unlabeled ligand. All compounds were tested at a broad range of concentrations ([…]) in duplicates. The test compounds (20 […]μl/well) were transferred into a 96 deep well plate (TreffLab), and 180 μl of HEPES-NaOH (20 mM, pH 7.4) containing MgCl2 (10 mM) and CaCl2 (2 mM) (binding buffer), 300 μl of the radioligand ^3[H]-(S)-4-[(ethyl-phenyl-amino)-methyl]-4,5-dihydro-oxazol-2-ylamine at a concentration of 3.3×Kd in nM and 500 μl of the membranes (resuspended at […]) added. The 96 deep well plates were incubated for 1 hr at 4° C. Incubations were terminated by rapid filtration through Unifilter-96 plates (Packard Instrument Company) and glass filters GF/C (Perkin Elmer) presoaked for 1 hr in polyethylenimine (0.3%) and washed 3 times with 1 ml of cold binding buffer. […]

rat TAAR1 = rat TAAR1 (Rattus norvegicus (Rat), UniProt Q923Y9); test: Radioligand binding assay on rat TAAR1; settings: for Ki: rat TAAR1 (second value of the cell), membranes of HEK-293 cells stably expressing rat TAAR1, read-out: Ki (μM) mouse/rat
Protocol: as §1, §2, §3
Radioligand Binding Assay on Rat TAAR1
as §4
HEK-293 cells stably expressing rat TAAR1 were maintained at 37° C. and 5% CO2 in DMEM high glucose medium, containing fetal calf serum (10%, heat inactivated for 30 min at 56° C.), penicillin/streptomycin (1%), and 375 μg/ml geneticin (Gibco). Cells were released from culture flasks using trypsin/EDTA, harvested, washed twice with ice-cold PBS (without Ca^2+ and Mg^2+), pelleted at 1,000 rpm for 5 min at 4° C., frozen and stored at −80° C. Frozen pellets were suspended in 20 ml HEPES-NaOH (20 mM, pH 7.4) containing 10 mM EDTA and homogenized with a Polytron (PT 6000, Kinematica) at 14,000 rpm for 20 s. The homogenate was centrifuged at 48,000×g for 30 min at 4° C. Subsequently, the supernatant was removed and discarded, and the pellet resuspended in 20 ml HEPES-NaOH (20 mM, pH 7.4) containing 0.1 mM EDTA using the Polytron (20 s at 14,000 rpm). This procedure was repeated and the final pellet resuspended in HEPES-NaOH containing 0.1 mM EDTA and homogenized using the Polytron. Typically, aliquots of 2 ml membrane portions were stored at −80° C. With each new membrane batch the dissociation constant (Kd) was determined via a saturation curve. […] Nonspecific binding was defined as the amount of ^3[H]-(S)-4-[(ethyl-phenyl-amino)-methyl]-4,5-dihydro-oxazol-2-ylamine bound in the presence of 10 μM unlabeled ligand. All compounds were tested at a broad range of concentrations ([…]) in duplicates. The test compounds (20 […]μl/well) were transferred into a 96 deep well plate (TreffLab), and 180 μl of HEPES-NaOH (20 mM, pH 7.4) containing MgCl2 (10 mM) and CaCl2 (2 mM) (binding buffer), 300 μl of the radioligand ^3[H]-(S)-4-[(ethyl-phenyl-amino)-methyl]-4,5-dihydro-oxazol-2-ylamine at a concentration of 3.3×Kd in nM and 500 μl of the membranes (resuspended at 50 μg protein per ml) added. The 96 deep well plates were incubated for 1 hr at 4° C. Incubations were terminated by rapid filtration through Unifilter-96 plates (Packard Instrument Company) and glass filters GF/C (Perkin Elmer) presoaked for 1 hr in polyethylenimine (0.3%) and washed 3 times with 1 ml of cold binding buffer. After addition of 45 μl of Microscint 40 (PerkinElmer) the Unifilter-96 plate was sealed and after 1 hr the ratioactivity counted using a TopCount Microplate Scintillation Counter (Packard Instrument Company).

Chain of mouse TAAR1 (Q923Y8 whole entry): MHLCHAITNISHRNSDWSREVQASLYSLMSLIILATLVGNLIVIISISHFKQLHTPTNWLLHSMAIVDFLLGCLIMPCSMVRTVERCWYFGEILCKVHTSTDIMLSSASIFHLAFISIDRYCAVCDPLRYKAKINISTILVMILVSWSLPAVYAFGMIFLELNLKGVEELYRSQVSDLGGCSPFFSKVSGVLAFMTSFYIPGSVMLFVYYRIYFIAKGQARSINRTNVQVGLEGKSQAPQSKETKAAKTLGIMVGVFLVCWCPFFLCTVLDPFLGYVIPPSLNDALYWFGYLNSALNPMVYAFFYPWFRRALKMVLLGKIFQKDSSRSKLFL
Chain of rat TAAR1 (Q923Y9 whole entry): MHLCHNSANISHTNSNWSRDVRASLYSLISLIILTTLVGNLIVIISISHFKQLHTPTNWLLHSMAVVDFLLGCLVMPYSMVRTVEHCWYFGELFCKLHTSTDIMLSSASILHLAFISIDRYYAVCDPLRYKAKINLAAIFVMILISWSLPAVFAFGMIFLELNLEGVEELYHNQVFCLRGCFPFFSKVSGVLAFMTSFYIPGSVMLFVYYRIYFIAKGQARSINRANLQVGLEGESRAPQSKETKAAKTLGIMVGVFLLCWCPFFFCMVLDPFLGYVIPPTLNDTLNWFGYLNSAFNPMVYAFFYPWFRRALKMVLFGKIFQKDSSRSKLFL

Ki (mouse TAAR1): 0.295 µM
Ki (rat TAAR1): 1.16 µM
SMILES: CC(C)c1cc(C(=O)Nc2ccc(C[C@@]34CN[C@@H](CO3)C4)cc2)[nH]n1 [Example 52, 3-Isopropyl-N-[4-[[(1R,4R)-5-oxa-2-azabicyclo[2.2.1]heptan-4-yl]methyl]phenyl]-1H-pyrazole-5-carboxamide]

Ki (mouse TAAR1): 0.0377 µM
Ki (rat TAAR1): 1.44 µM
SMILES: O=C(Nc1ccc(C23CCC(CO2)NC3)cc1)c1ccnc(C(F)(F)F)c1 (racemic) [Example 37, (RS)—N-[4-(5-Oxa-2-azabicyclo[2.2.2]octan-4-yl)phenyl]-2-(trifluoromethyl)pyridine-4-carboxamide]

Ki (mouse TAAR1): 0.846 µM
Ki (rat TAAR1): 0.0442 µM
SMILES: O=C(Nc1ccc(C[C@]23CN[C@H](CO2)C3)cc1)Nc1ccc(C(F)(F)F)cc1 [Example 8, 1-[4-[[(1S,4S)-5-Oxa-2-azabicyclo[2.2.1]heptan-4-yl]methyl]phenyl]-3-[4-(trifluoromethyl)phenyl]urea]

Ki (mouse TAAR1): 0.0774 µM
Ki (rat TAAR1): 0.324 µM
SMILES: O=C(Nc1ccc(C[C@@]23CN[C@@H](CO2)C3)cc1)c1cnc(C2CC2)nc1 [Example 51, 2-Cyclopropyl-N-[4-[[(1R,4R)-5-oxa-2-azabicyclo[2.2.1]heptan-4-yl]methyl]phenyl]pyrimidine-5-carboxamide]

Ki (mouse TAAR1): 0.0304 µM
Ki (rat TAAR1): 0.624 µM
SMILES: O=C(Nc1ccc(C23CCC(CO2)NC3)cc1)c1ccc(OCC(F)(F)F)nc1 (racemic) [Example 13, (RS)—N-[4-(5-Oxa-2-azabicyclo[2.2.2]octan-4-yl)phenyl]-6-(2,2,2-trifluoroethoxy)pyridine-3-carboxamide]

Ki (mouse TAAR1): 0.0086 µM
Ki (rat TAAR1): 0.0614 µM
SMILES: O=C(Nc1ccc(C[C@@]23CN[C@@H](CO2)C3)cc1)Nc1cccc(Cl)c1 [Example 24, 1-(3-Chlorophenyl)-3-[4-[[(1R,4R)-5-oxa-2-azabicyclo[2.2.1]heptan-4-yl]methyl]phenyl]urea]

Ki (mouse TAAR1): 0.016 µM
Ki (rat TAAR1): 0.071 µM
SMILES: O=C(Nc1ccc([C@]23CN[C@H](CO2)C3)cc1)c1ccc(Cl)cc1 [Example 58, 4-Chloro-N-[4-[(1S,4R)-5-oxa-2-azabicyclo[2.2.1]heptan-4-yl]phenyl]benzamide]

Ki (mouse TAAR1): 0.0044 µM
Ki (rat TAAR1): 0.797 µM
SMILES: O=C(Nc1ccc(C23CCC(CO2)NC3)cc1)c1cccc(Cl)c1 (centres unmarked) [Example 6, 3-Chloro-N-[4-(5-oxa-2-azabicyclo[2.2.2]octan-4-yl)phenyl]benzamide]

Ki (mouse TAAR1): 0.238 µM
Ki (rat TAAR1): 0.354 µM
SMILES: O=C(Nc1ccc(C[C@]23CN[C@H](CO2)C3)cc1)c1ccnc(C(F)(F)F)c1 [Example 18, N-[4-[[(1S,4S)-5-Oxa-2-azabicyclo[2.2.1]heptan-4-yl]methyl]phenyl]-2-(trifluoromethyl)pyridine-4-carboxamide]

Ki (mouse TAAR1): > 10 µM
Ki (rat TAAR1): 0.854 µM
SMILES: FC(F)(F)c1cnc(Nc2ccc(C[C@]34CN[C@H](CO3)C4)cc2)cn1 [Example 32, N-[4-[[(1S,4S)-5-Oxa-2-azabicyclo[2.2.1]heptan-4-yl]methyl]phenyl]-5-(trifluoromethyl)pyrazin-2-amine]

Further lines, the compound ahead of its results:

SMILES: O=C(Nc1ccc(C[C@]23CN[C@H](CO2)C3)cc1)Nc1cccc(C(F)(F)F)c1 [Example 10, 1-[4-[[(1S,4S)-5-Oxa-2-azabicyclo[2.2.1]heptan-4-yl]methyl]phenyl]-3-[3-(trifluoromethyl)phenyl]urea]
Ki (mouse TAAR1): 0.365 µM
Ki (rat TAAR1): 0.0209 µM

SMILES: FC(F)(F)c1ccc(Nc2ccc([C@]34CN[C@H](CO3)C4)cc2)nc1 [Example 61, N-[4-[(1 S,4R)-5-Oxa-2-azabicyclo[2.2.1]heptan-4-yl]phenyl]-5-(trifluoromethyl)pyridin-2-amine]
Ki (mouse TAAR1): 0.0146 µM
Ki (rat TAAR1): 0.0293 µM

SMILES: Clc1ccc(Nc2ccc(C[C@@]34CN[C@@H](CO3)C4)cc2)nc1 [Example 42, 5-Chloro-N-[4-[[(1R,4R)-5-oxa-2-azabicyclo[2.2.1]heptan-4-yl]methyl]phenyl]pyridin-2-amine]
Ki (mouse TAAR1): 0.0158 µM
Ki (rat TAAR1): 0.355 µM

SMILES: Clc1ccc(Nc2ccc(C[C@]34CN[C@H](CO3)C4)cc2)nc1 [Example 30, 5-Chloro-N-[4-[[(1S,4S)-5-oxa-2-azabicyclo[2.2.1]heptan-4-yl]methyl]phenyl]pyridin-2-amine]
Ki (mouse TAAR1): 2.55 µM
Ki (rat TAAR1): 0.621 µM

SMILES: FC(F)(F)c1nccc(Nc2ccc([C@]34CN[C@H](CO3)C4)cc2)n1 [Example 62, N-[4-[(1S,4R)-5-Oxa-2-azabicyclo[2.2.1]heptan-4-yl]phenyl]-2-(trifluoromethyl)pyrimidin-4-amine]
Ki (mouse TAAR1): 0.144 µM
Ki (rat TAAR1): 0.233 µM

SMILES: O=C(Nc1ccc(C[C@@]23CN[C@@H](CO2)C3)cc1)Nc1ccccc1Cl [Example 43, 1-(2-Chlorophenyl)-3-[4-[[(1R,4R)-5-oxa-2-azabicyclo[2.2.1]heptan-4-yl]methyl]phenyl]urea]
Ki (mouse TAAR1): 0.0124 µM
Ki (rat TAAR1): 0.202 µM

SMILES: Clc1ccc(Nc2ccc(C34CCC(CO3)NC4)cc2)nc1 (racemic) [Example 3, (RS)-5-Chloro-N-[4-(5-oxa-2-azabicyclo[2.2.2]octan-4-yl)phenyl]pyridin-2-amine]
Ki (mouse TAAR1): 0.0141 µM
Ki (rat TAAR1): 2.46 µM

SMILES: O=C(Nc1ccc([C@@]23CN[C@@H](CO2)C3)cc1)c1cccc(Cl)c1 [Example 55, 3-Chloro-N-[4-[(1R,4S)-5-oxa-2-azabicyclo[2.2.1]heptan-4-yl]phenyl]benzamide]
Ki (mouse TAAR1): 0.0036 µM
Ki (rat TAAR1): 0.964 µM

SMILES: CCN(C[C@H]1COC(N)=N1)c1ccccc1 [^3[H]-(S)-4-[(ethyl-phenyl-amino)-methyl]-4,5-dihydro-oxazol-2-ylamine, reference compound]
Kd (mouse TAAR1; mouse TAAR1 membranes, saturation curve, read-out: dissociation constant (Kd) of the TAAR1 radioligand): ~0.0007 µM
Kd (rat TAAR1; rat TAAR1 membranes, saturation curve, read-out: dissociation constant (Kd) of the TAAR1 radioligand): ~0.0023 µM
